Where “and” joins values, the source holds several entries; their conditions need not be identical. Equal values may be shown once.
Tests used:
[1] = test system: rat isolated heart; assay: Chronotropy and inotropy in Langendorff rat isolated heart; details: for maximum beating rate: 83 pMol
Procedure: Male Sprague-Dawley rats weighing 300-350 g (Charles River, Portage, Ind., USA) were anesthetized with 60 mg/kg pentobarbital sodium (Fort Dodge Laboratories, Inc., Fort Dodge, Iowa, USA) intraperitoneally. Following thoracotomy, the hearts were removed and placed into 4° C. […] Any associated lung and thymic tissue were trimmed off and the ascending aorta cannulated. The heart was then perfused at 10 ml/min with Krebs-Henseleit solution at 37° C. The perfusion pressure was constantly monitored. A small incision was made in the left atrium and a water-filled balloon (Hugo Sachs Electronik, March-Hugstetten, Germany) connected to a pressure transducer (Gould Electronics, Valley View, Ohio, USA) was placed into the left ventricle for the measurement of left ventricular developed pressure (LVDP). From this pressure, recording heart rate was electronically derived on a Grass polygraph (Quincy, Mass., USA).
In six experiments, after a 15-20 minutes stabilization period, the atria were removed. The heart rate was then allowed to stabilize at its new rate before the administration of relaxin. In three experiments, the atria were left intact.
Relaxin was administered as 50 μl bolus injections into the perfusion fluid immediately prior to entering the heart. Cumulative dose-response curves were constructed using human recombinant H2 relaxin (Genentech, Inc. South San Francisco, Calif., USA). […] Serial dilutions of both drugs were made using 0.9% (w/v) saline solution.
Statistical significance was determined by a two-tailed Student's unpaired t-test and P<0.005 was taken as significant.

[2] = test system: rat isolated atrial preparations; details: cited from earlier work
[3] = test system: right atrium; assay: Right atrial rate, isolated spontaneously beating right atrium; parameters: species or system rat; details: for right atrial heart rate % Δ, mean (X): mean of experiments; for right atrial heart rate / right atrial heart rate % Δ: single experiment
Procedure: Krebs-Henseleit solution was prepared with the following composition (in millimoles): NaCl 118; KCl 4.7; MgSO4 1.64; NaHCO3 24.88; KH2 PO4 1.18; d-glucose 11.1; bubbled with 95% O2 /5% CO2; CaCl2 2.52.
Human (H2) relaxin (hRLx-2, 1.5 mg/ml; Genentech) was diluted fresh daily to desired concentrations (500:1; 5000:1; 50000:1) in Krebs-Henseleit solution.
Male Wistar rats (Charles River) weighing 475-525 g each, were anesthetized with sodium pentobarbital (60 mg/kg). After thoracotomy, the heart was removed rapidly and placed in cold (4° C.) Krebs-Henseleit solution until spontaneous contractions ceased. The right and left atria were excised.
Tissue was bathed in an organ chamber holding 42 ml Krebs-Henseleit solution that was aerated with 95% O2 /5% CO2 and heated to 37° C. with a temperature controlled water jacket. Tissue contractions were measured with force-displacement transducers (Grass FT 0.3) and recorded on chart paper (Grass moled 79 polygraph). The rates of contractions were determined with a cardiotachometer (Grass). Electrical stimulation of tissue was induced through bipolar clip electrodes connected to a stimulator through a stimulus isolation unit (Grass model S48).
Stainless steel clips weighing 0.5 g each were attached to each end of the right atrium. One clip was secured to a hook within the organ chamber and the other clip was attached to the force-displacement transducer. The position of the transducer was adjusted to yield 0.5 g resting tension.
In all experiments the atria were allowed to stabilize for 30 minutes prior to addition of drugs. […] Thus, cumulative dose-response curves were generated. At 10 minute intervals, relaxin was added to each organ chamber to obtain bath concentrations of 100 pg/ml, 300 pg/ml, 1 ng/ml, 3 ng/ml, 10 ng/ml and 30 ng/ml.
Measurement of contraction rate and force of contraction following each dose of relaxin were obtained after responses reached a steady state. Rate was determined directly from the output of the cardiotachometer. Force of contraction was measured as the magnitude of the contractile twitches. In order to adjust for variations between tissues, data are expressed as percent changes from pre-drug values, as means±standard errors. Measurements of rate were obtained in seven right atria; measurement of contractile force were obtained in four left atria.

[4] = Intravenous injection of relaxin, earlier experiments; assay type: in vivo
[5] = Continuous subcutaneous infusion in female SHR and SD rats, uterine weight; assay type: in vivo, rat; details: continuous s.c. infusion 1 or 10 ng/min
Procedure: Groups (4 to 9 animals in each group) of conscious, non-pregnant, Spontaneously Hypertensive (SHR) and Sprague-Dawley (SD) female rats weighing about 144-385 g each, were used in this experiment. The rats were anesthetized with ketamine hydrochloride (150 mg/kg) in order to cannulate the left iliac artery and to implant an osmotic pump. All surgery was performed under aseptic conditions. Stretched PE 50 tubing was fitted with an injection cap and flushed with heparinized saline, routed subcutaneously, exteriorized between the capsulae, and passed through a spring tether that is anchored to the skin with a nylon button. Extreme care was taken in cannulating the left iliac artery to avoid damage to collateral circulation and local innervation. An (Alzet) osmotic pump filled with relaxin or vehicle was then inserted into a subcutaneous pocket caudal to the exit point of the cannula.
All wounds were closed with suture, infiltrated with Xylocaine and coated with Betadine. […] Arterial pressure, heart rate, water intake, urine volume and vascular blood volume were measured daily throughout the duration of the experiments.
Arterial pressure and heart rate were measured directly through the arterial cannulae with standard pressure transducers (Stoelting) and strain gauge amplifiers (Stoelting). […]

Q: For relaxin, which “transient increases in coronary perfusion pressure” value [1] is on record?
A: not seen

Q: And the “effect on LVDP” value ([1]; atria removed (LVDP 143±9 mmHg), 0.83 pMol)?
A: significantly reduced the LVDP to control levels

Q: What about the maximum beating rate ([1]; atria removed, basal 139±15 bpm) of the same substance?
A: 268±7 bpm

Q: What about the maximum beating rate ([1]; intact heart preparations, basal 270±7 bpm) of the same substance?
A: 412±18 bpm

Q: What about the inotropic effect ([1]; isolated heart preparations) of the same substance?
A: no positive inotropic effects

Q: And the “duration of chronotropic effect” value ([1]; relaxin: single bolus administration of 830 pMol)?
A: up to two hours

Q: What about the “chronotropic and inotropic effects” value [2] of the same substance?
A: positive chronotropic and inotropic effects

Q: What about the “right atrial heart rate % Δ, mean (X)” value ([3]; 100 pg (printed under 30 pg)) of the same substance?
A: 0.17%

Q: And the “right atrial heart rate” value ([3]; 100 pg)?
A: 290 beats/min and 270 beats/min and 300 beats/min and 320 beats/min

Q: What about the “right atrial heart rate % Δ” value ([3]; 100 pg, change from pre-drug value) of the same substance?
A: 0% and 1%

Q: What about the “right atrial heart rate % Δ, mean (X)” value ([3]; 300 pg (printed under 100 pg)) of the same substance?
A: 3.83%

Q: And the “right atrial heart rate” value ([3]; 300 pg)?
A: 300 beats/min and 295 beats/min and 310 beats/min and 330 beats/min

Q: And the “right atrial heart rate % Δ” value ([3]; 300 pg)?
A: 3% and 9% and 5% and 0%

Q: And the “right atrial heart rate % Δ, mean (X)” value ([3]; 1 ng (printed under 300 pg))?
A: 11.67%

Q: What about the “right atrial heart rate” value ([3]; 1 ng) of the same substance?
A: 320 beats/min and 310 beats/min and 350 beats/min and 345 beats/min

Q: And the “right atrial heart rate % Δ, mean (X)” value ([3]; 3 ng (printed under 1 ng))?
A: 23.33%

Q: What about the “right atrial heart rate” value ([3]; 3 ng) of the same substance?
A: 345 beats/min and 350 beats/min and 400 beats/min and 360 beats/min and 365 beats/min

Q: And the “right atrial heart rate % Δ, mean (X)” value ([3]; 10 ng (printed under 3 ng))?
A: 32.0%

Q: What about the “right atrial heart rate” value ([3]; 10 ng) of the same substance?
A: 345 beats/min and 390 beats/min and 445 beats/min and 370 beats/min and 385 beats/min and 380 beats/min

Q: What about the “right atrial heart rate % Δ, mean (X)” value ([3]; 30 ng (printed under 10 ng)) of the same substance?
A: 36.2%

Q: What about the “average increase in contraction rate” value ([3]; 30 ng/minute dose) of the same substance?
A: 36%

Q: And the “right atrial heart rate” value ([3]; 30 ng)?
A: 400 beats/min and 450 beats/min and 385 beats/min and 395 beats/min and 405 beats/min

Q: And the “point of half maximal increase in contraction rate” value ([3]; right atrium)?
A: about 1.8 ng/ml

Q: What about the heart rate [4] of the same substance?
A: small but consistent increase in heart rate

Q: What about the “systolic and diastolic pressure” value [4] of the same substance?
A: decrease in systolic and diastolic pressure

Q: And the uterine weight [5]?
A: increased uterine weights

From US5478807A, “Use of relaxin in the treatment of bradycardia” (Genentech, Inc., priority 1992, dated 1995)
